Laboratory results from patent publication US9090593B2, “Bicyclic compounds as Pim inhibitors” (AMGEN INC., priority 2010, dated 2015).
pIC50: −log10 of the molar value.

Columns and labels:
[1] = biological target: T1, Pim-2 stably transfected into the U2OS human osteogenic sarcoma line (Homo sapiens, UniProt Q9P1W9); assay: Pim cell assay, phospho-BAD normalized against total BAD, U2OS stably transfected with Pim-2; assay type: cell-based; conditions: U2OS cells stably transfected with Pim-2, phospho-BAD; high dose […]; read-out: Pim2_Cell_IC50; note: high dose 31.6 µM
T1 construct: expressed in transfected cells; host or cells: U2OS human osteogenic sarcoma line
Method in brief: (§1)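 U2OS cells stably expressing Pim-1 or Pim-2 were plated overnight at 37 °C, then dosed over a 10-point curve (final 0.3% DMSO; DMSO alone as high control). Lysates assayed for phospho- and total BAD by Meso Scale immunoassay; % phosphoprotein = (2×phospho)/(phospho+total)×100.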

[2] = biological target: T2, full length recombinant Pim-1 protein (Homo sapiens, UniProt P11309); assay: Pim-1 enzyme assay (HTRF, phosphorylation of biotinylated-BAD (S112) peptide); assay type: biochemical; conditions: enzyme assay, Pim-1; read-out: Pim_1_IC50
T2 construct: by full length recombinant Pim-1, Pim-2, or Pim-3 protein; hexahistidine tag followed by a thrombin cleavage site (N); made in house; host or cells: Sf9 (baculovirus) or E. coli (pET28)
Method in brief: (§2)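 Full-length human Pim-1 or Pim-2 (His6-tagged, Sf9 or E. coli expressed, Ni and Superdex 75 purified) phosphorylates biotinylated BAD (S112) peptide in 60 mM Hepes pH 7.0, 0.05% BSA, 2 mM DTT. Stopped with 3 mM EDTA; HTRF read with Eu anti-phospho-BAD and streptavidin-APC. IC50 from 4-parameter logistic fit of percent of control.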

[3] = biological target: T3, full length recombinant Pim-3 protein (Homo sapiens, UniProt Q86V86); assay: Pim-3 enzyme assay (HTRF, phosphorylation of biotinylated-BAD (S112) peptide); assay type: biochemical; conditions: read-out: Pim3 IC50
T3 construct: by full length recombinant Pim-1, Pim-2, or Pim-3 protein; purchased Millipore (UK)
Method in brief: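 Full-length recombinant Pim-3 phosphorylates biotinylated BAD (S112) peptide in 60 mM Hepes pH 7.0, 0.05% BSA, 2 mM DTT; reaction stopped with 3 mM EDTA. Phospho-BAD detected by HTRF (Eu anti-phospho-BAD S112 antibody, streptavidin-APC). IC50 from percent-of-control values fitted to a 4-parameter logistic model.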

[4] = biological target: T4, Pim-1 stably transfected into the U2OS human osteogenic sarcoma line (Homo sapiens, UniProt P11309); assay: Pim cell assay, phospho-BAD normalized against total BAD, U2OS stably transfected with Pim-1; assay type: cell-based; conditions: U2OS cells stably transfected with Pim-1, phospho-BAD; high dose […]; read-out: Pim1_Cell_IC50
T4 construct: expressed in transfected cells; host or cells: U2OS human osteogenic sarcoma line
Method in brief: as §1

[5] = biological target: T5, full length recombinant Pim-2 protein (Homo sapiens, UniProt Q9P1W9); assay: Pim-2 enzyme assay (HTRF, phosphorylation of biotinylated-BAD (S112) peptide); assay type: biochemical; conditions: enzyme assay, Pim-2; read-out: Pim2_IC50
T5 construct: by full length recombinant Pim-1, Pim-2, or Pim-3 protein; hexahistidine tag followed by a thrombin cleavage site (N); made in house; host or cells: Sf9 (baculovirus) or E. coli (pET28)
Method in brief: as §2

T4 sequence (P11309 whole entry): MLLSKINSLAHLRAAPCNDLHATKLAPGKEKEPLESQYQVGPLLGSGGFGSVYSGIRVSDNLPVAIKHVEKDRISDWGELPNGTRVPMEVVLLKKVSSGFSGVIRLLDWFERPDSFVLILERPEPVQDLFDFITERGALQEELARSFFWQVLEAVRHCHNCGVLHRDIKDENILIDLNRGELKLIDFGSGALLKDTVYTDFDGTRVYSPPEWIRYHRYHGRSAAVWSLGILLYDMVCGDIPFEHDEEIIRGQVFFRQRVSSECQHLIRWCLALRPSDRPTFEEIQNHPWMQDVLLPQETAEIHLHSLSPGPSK
T2 sequence (P11309 whole entry): as above
T5 sequence (Q9P1W9 whole entry): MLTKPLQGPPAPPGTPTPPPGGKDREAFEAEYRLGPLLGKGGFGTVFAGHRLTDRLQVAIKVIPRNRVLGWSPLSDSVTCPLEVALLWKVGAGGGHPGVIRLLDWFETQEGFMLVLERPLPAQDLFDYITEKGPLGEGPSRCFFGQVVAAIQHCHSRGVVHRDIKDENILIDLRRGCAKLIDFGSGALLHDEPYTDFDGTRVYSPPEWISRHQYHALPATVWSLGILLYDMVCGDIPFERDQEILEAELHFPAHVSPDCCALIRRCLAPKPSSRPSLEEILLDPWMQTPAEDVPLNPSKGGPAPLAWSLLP
T1 sequence (Q9P1W9 whole entry): as above

Row | pIC50 [1] | pIC50 [2] | pIC50 [3] | pIC50 [4] | pIC50 [5] | SMILES
1 | 5.52 | 8.10 | 7.85 | 6.61 | 7.85 | O=C(NC1CC1)c1cccc(-c2ccc3[nH]nc(-c4cncc(O[C@@H]5CCCNC5)n4)c3c2)c1 [Example 132, N-cyclopropyl-3-(3-(6-((3R)-3-piperidinyloxy)-2-pyrazinyl)-1H-indazol-5-yl)benzamide]
2 | 5.11 | 8.30 | 8.22 | 6.36 | 7.77 | Fc1ccccc1-c1ccc2[nH]nc(-c3cncc(O[C@@H]4CCCNC4)n3)c2c1 [Example 133, 5-(2-fluorophenyl)-3-(6-((3R)-3-piperidinyloxy)-2-pyrazinyl)-1H-indazole]
3 | < 4.50 | 8.30 | 7.85 | 6.04 | 6.73 | c1cn2cc(-c3ccc4[nH]nc(-c5cncc(O[C@@H]6CCCNC6)n5)c4c3)ncc2n1 [Example 138, 6-(3-(6-((3R)-3-piperidinyloxy)-2-pyrazinyl)-1H-indazol-5-yl)imidazo[1,2-a]pyrazine]
4 | 5.42 | 7.89 | 7.92 | 6.34 | 7.89 | O=C(NC1CC1)c1ccc(F)c(-c2ccc3[nH]nc(-c4cncc(O[C@@H]5CCCNC5)n4)c3c2)c1 [Example 139, N-cyclopropyl-4-fluoro-3-(3-(6-((3R)-3-piperidinyloxy)-2-pyrazinyl)-1H-indazol-5-yl)benzamide]
5 | < 4.50 | 7.72 | 8.22 | 6.20 | 7.06 | FC(F)(F)c1cccc(-c2ccc3[nH]nc(-c4cncc(O[C@@H]5CCCNC5)n4)c3c2)n1 [Example 142, 3-(6-((3R)-3-piperidinyloxy)-2-pyrazinyl)-5-(6-(trifluoromethyl)-2-pyridinyl)-1H-indazole]
6 | < 4.50 | 8.30 | 7.60 | 6.06 | 7.47 | CC(C)Oc1cc(-c2ccc3[nH]nc(-c4cncc(O[C@@H]5CCCNC5)n4)c3c2)ccn1 [Example 143, 5-(2-(1-methylethoxy)-4-pyridinyl)-3-(6-((3R)-3-piperidinyloxy)-2-pyrazinyl)-1H-indazole]
7 | < 4.80 | 9.00 | 9.00 | 7.44 | 6.92 | c1cc2[nH]nc(-c3cncc(O[C@@H]4CCCNC4)n3)c2cc1-c1cncc(NC2CC2)n1 [Example 158, N-cyclopropyl-6-(3-(6-((3R)-3-piperidinyloxy)-2-pyrazinyl)-1H-indazol-5-yl)-2-pyrazinamine]
8 | < 4.50 | 7.24 | 7.31 | 5.79 | 6.01 | O[C@H]1CCCN(c2cncc(-c3n[nH]c4ccc(-c5c(F)cccc5F)cc34)n2)C1 [Example 163, (3S)-1-(6-(5-(2,6-difluorophenyl)-1H-indazol-3-yl)-2-pyrazinyl)-3-piperidinol]
9 | 4.85 | 8.22 | 8.22 | 6.24 | 7.21 | CN(c1cncc(-c2n[nH]c3ccc(-c4c(F)cccc4F)cc23)n1)C1CCCNC1 (stereo not shown) [Example 178, 6-(5-(2,6-difluorophenyl)-1H-indazol-3-yl)-N-methyl-N-3-piperidinyl-2-pyrazinamine]
10 | < 4.50 | 7.12 | 7.09 | 5.67 | 6.19 | CCNc1cncc(-c2n[nH]c3ccc(-c4c(F)cccc4F)cc23)n1 [Example 180, 6-(5-(2,6-difluorophenyl)-1H-indazol-3-yl)-N-ethyl-2-pyrazinamine]
11 | < 4.50 | 7.40 | 7.31 | 5.61 | 6.25 | CC(C)Nc1cncc(-c2n[nH]c3ccc(-c4c(F)cccc4F)cc23)n1 [Example 182, 6-(5-(2,6-difluorophenyl)-1H-indazol-3-yl)-N-(1-methylethyl)-2-pyrazinamine]
